Data published in patent US9770407B2 (Lundbeck Pharmaceuticals LLC, priority 2005, dated 2017).
≈ marks a conversion by molar mass, not a printed value. Where “and” joins values, the source holds several entries; their conditions need not be identical. Identical values can stand only once.

Legend:
[1] = Phase solubility of CBZ in aqueous Captisol and aqueous Cavitron; format: physicochemical; conditions: for Measured CBZ conc: ambient laboratory temperature
Method: The percent weight/volume cyclodextrin solutions were prepared by adding the appropriate amount of cyclodextrin to a flask and filling to the desired total volume (10 mL) with water, as shown in the following Table 4. An excess of carbamazepine was added to each eppendorf tube. Appropriate vehicles were added to each tube and the final volumes were 1 mL. The solubility of CBZ was determined at ambient laboratory temperatures in various concentrations of aqueous Captisol and aqueous Cavitron (brand names of modified cyclodextrins useful in the present invention). The drug substance was added to a microcentrifuge tube and the appropriate vehicle was added. Periodically, the samples were centrifuged and then an aliquot was removed from the supernatant, diluted as necessary and assayed by HPLC to determine the concentration. The phase solubility was evaluated at least three times during each experiment to insure that the mixture achieved equilibrium. […] The solubilities reported in Table 5 are the average of two or three concentration determinations obtained during the respective time course.

[2] = Subset analysis of subjects on extended release CBZ twice daily: predicted IV vs observed oral steady-state Cmax, Cmin, AUC; format: in vivo, human; conditions: N=47; for AUC: human, plasma
Method: A subset analysis of the subject data (n=47), including only those subjects taking extended release (ER) formulations of CBZ twice daily (as indicated by the product label), was performed to compare predicted maximum and minimum exposures of CBZ at steady-state administered via IV infusion to those observed following oral administration. CBZ concentration-time profiles following IV administration will differ from oral administration to the greatest extent for subjects on ER products, since these products provide formulation dependent control of the concentration-time profile. Subjects on extended release formulations experience the least fluctuation in concentrations and will maintain higher relative trough concentrations compared to any non-extended release product. Thus, the analysis in this subset gives a conservative assessment of potential differences in peak and trough exposures following IV administration. This analysis included calculations of predicted Cmax, Cmin, and AUCss values of CBZ for subjects predicted to be at steady-state on IV therapy.

[3] = human, in vivo, po
Method: (§1) Indwelling catheters were placed into the arms of test subjects. A single 100 mg dose of stable-labeled (non-radioactive) CBZ (SL-CBZ) was then infused over 10 minutes. At the end of the infusion, the subject's usual morning dose of oral CBZ, less 100 mg, was administered. Blood pressure, heart rate and rhythm, and infusion site discomfort were monitored during and for an hour after the infusion. […] Unbound CBZ was measured following ultrafiltration. CBZ concentration-time data were analyzed using a non-compartmental approach with the pharmacokinetic software, WinNONLIN.
(§2) A validated LC-MS assay for SL-CBZ, CBZ and their respective epoxide metabolites was used. […] CBZ was assayed similar to that described by Osterloh and Bertilsson. […] After shaking and centrifugation, the organic layer was removed and evaporated under nitrogen gas to dryness. Each sample was then redissolved with the addition of 25 microliters of ethyl acetate. Plasma samples were measured for unbound and total CBZ, CBZ glucuronide and CBZ-E by LCMS. Unbound drug was separated from the bound fraction by ultrafiltration. The mobile phase consists of 50% 0.05 M ammonium acetate buffer, pH 4.7, 50% MeOH at a flow rate of 0.4 ml/min, on a reverse phase C-18 column.

[4] = immediate release and extended release tablets; previously estimated; cited from earlier work
clinical = conditions: human, in vivo
Method: as §1, §2

[5] = 5th Percentile, observed, ER products twice daily
[6] = 5th Percentile, predicted, IV every 6 hours
[7] = 95th Percentile, observed, ER products twice daily
[8] = 95th Percentile, predicted, IV every 6 hours
[9] = Maximum, observed, ER products twice daily
[10] = Maximum, predicted, IV every 6 hours
[11] = Median, observed, ER products twice daily
[12] = Median, predicted, IV every 6 hours
[13] = Minimum, observed, ER products twice daily
[14] = Minimum, predicted, IV every 6 hours

NC(=O)N1c2ccccc2C=Cc2ccccc21 [Carbamazepine, 5H-dibenz[b,f]azepine-5-carboxamide]
Measured CBZ conc ([1]; Cavitron 40% w/v, CBZ source Orgamol, listed as CBZ): 22.5 mg/mL and 22.0 mg/mL
Measured CBZ conc ([1]; Cavitron 40% w/v, CBZ source Spectrum): 23.2 mg/mL
Measured CBZ conc, Ave ([1]; Cavitron 40% w/v, average of the three determinations): 22.6 mg/mL
Measured CBZ conc ([1]; Cavitron 45% w/v, CBZ source Orgamol, listed as CBZ): 25.5 mg/mL and 25.7 mg/mL
Measured CBZ conc ([1]; Cavitron 45% w/v, CBZ source Spectrum): 27.3 mg/mL
Measured CBZ conc, Ave ([1]; Cavitron 45% w/v, average of the three determinations): 26.2 mg/mL
Measured CBZ conc ([1]; Cavitron 50% w/v, CBZ source Orgamol, listed as CBZ): 27.8 mg/mL and 28.0 mg/mL
Measured CBZ conc ([1]; Cavitron 50% w/v, CBZ source Spectrum): 31.5 mg/mL
Measured CBZ conc, Ave ([1]; Cavitron 50% w/v, average of the three determinations): 29.1 mg/mL
solubility thermodynamic ([1]; aqueous Cavitron, water, thermodynamic from solid, Cavitron 0% w/v, average of the three determinations, read-out: Measured CBZ conc, Ave): 200 µg/mL (≈ 846 µM)
CBZ solubility in Cavitron as compared to Captisol ([1]; at most cyclodextrin concentrations, FIG. 1A): marginally improved in Cavitron
Oral Cmaxss [2, 5]: 4980 ng/mL
Oral Cminss [2, 5]: 4320 ng/mL
IV CmaxSS (mean F = 0.7) [2, 6]: 4800 ng/mL
IV CminSS (mean F = 0.7) [2, 6]: 2480 ng/mL
Oral Cmaxss [2, 7]: 14600 ng/mL
Oral Cminss [2, 7]: 14550 ng/mL
IV CmaxSS (mean F = 0.7) [2, 8]: 24140 ng/mL
IV CminSS (mean F = 0.7) [2, 8]: 18640 ng/mL
Oral Cmaxss [2, 9]: 17100 ng/mL
Oral Cminss [2, 9]: 16690 ng/mL
IV CmaxSS (mean F = 0.7) [2, 10]: 47000 ng/mL
IV CminSS (mean F = 0.7) [2, 10]: 41040 ng/mL
IV CmaxSS (mean F = 0.7) ([2]; Maximum, predicted, IV every 6 hours, listed as CBZ): 47000 ng/mL
Oral Cmaxss ([2]; Mean ± SD, observed, ER products (Carbatrol, Tegretol XR) twice daily, highest observed concentration, sparse sampling): 9920 ± 2990 ng/mL
Oral Cminss ([2]; Mean ± SD, observed, ER products twice daily): 9320 ± 2930 ng/mL
IV CminSS (mean F = 0.7) ([2]; Mean ± SD, predicted, IV every 6 hours): 8630 ± 6850 ng/mL
IV CmaxSS (mean F = 0.7) ([2]; Mean ± SD, predicted, scaled from 100 mg single IV dose over 10 minutes, every 6 hours): 11750 ± 7900 ng/mL
IV CmaxSS (mean F = 0.7) ([2]; Mean ± SD, predicted, scaled from 100 mg single IV dose over 10 minutes, every 6 hours, listed as CBZ): 11750 ng/mL
Oral Cmaxss [2, 11]: 9810 ng/mL
Oral Cminss [2, 11]: 9440 ng/mL
IV CmaxSS (mean F = 0.7) [2, 12]: 9930 ng/mL
IV CminSS (mean F = 0.7) [2, 12]: 6500 ng/mL
Oral Cmaxss [2, 13]: 2890 ng/mL
Oral Cminss [2, 13]: 2890 ng/mL
IV CmaxSS (mean F = 0.7) [2, 14]: 3170 ng/mL
IV CminSS (mean F = 0.7) [2, 14]: 1650 ng/mL
AUC ([2]; iv, 5th Percentile, predicted, IV every 6 hours, read-out: IV AUCSS (mean F = 0.7)): 43100 ng·h/mL
AUC ([2]; iv, 95th Percentile, predicted, IV every 6 hours, read-out: IV AUCSS (mean F = 0.7)): 257000 ng·h/mL
AUC ([2]; iv, Maximum, predicted, IV every 6 hours, read-out: IV AUCSS (mean F = 0.7)): 551000 ng·h/mL
AUC ([2]; iv, Mean ± SD, predicted, IV every 6 hours, read-out: IV AUCSS (mean F = 0.7)): 122000 ± 90900 ng·h/mL
AUC ([2]; iv, Median, predicted, IV every 6 hours, read-out: IV AUCSS (mean F = 0.7)): 93700 ng·h/mL
AUC ([2]; iv, Minimum, predicted, IV every 6 hours, read-out: IV AUCSS (mean F = 0.7)): 26900 ng·h/mL
AUC ([2]; po, 5th Percentile, observed, ER products, 12 hour dosing interval, read-out: Oral AUCss): 50100 ng·h/mL
AUC ([2]; po, 95th Percentile, observed, ER products, 12 hour dosing interval, read-out: Oral AUCss): 146000 ng·h/mL
AUC ([2]; po, Maximum, observed, ER products, 12 hour dosing interval, read-out: Oral AUCss): 168000 ng·h/mL
AUC ([2]; po, Mean ± SD, observed, ER products, 12 hour dosing interval, read-out: Oral AUCss): 96800 ± 28100 ng·h/mL
AUC ([2]; po, Median, observed, ER products, 12 hour dosing interval, read-out: Oral AUCss): 96000 ng·h/mL
AUC ([2]; po, Minimum, observed, ER products, 12 hour dosing interval, read-out: Oral AUCss): 28500 ng·h/mL
calculated mean F value [3]: 75%
median F value [3]: 67%
absolute bioavailability [4]: 75-85
AUC (clinical; iv, 100 mg, AUC 0-° o): 36500 ng·h/mL
clearance (clinical; iv, CL): 0.6 mL/min/kg
AUC (clinical; po, AUCss (po)): 87200 ng·h/mL
bioavailability (clinical; po, absolute bioavailability of oral CBZ during maintenance therapy centers around): 70 to 75%
bioavailability (clinical; po, average oral bioavailability): 65 to 75%
